In paper PMC9065678, “BI 1015550 is a PDE4B Inhibitor and a Clinical Drug Candidate for the Oral Treatment of Idiopathic Pulmonary Fibrosis” (Frontiers in Pharmacology, 2022):

Experiments:
[1] = molecular target: T1, PDE2A (Homo sapiens, UniProt O00408); assay: PDE2A inhibition screen at Eurofins Cerep; type: biochemical; settings: screened at Eurofins Cerep
T1 construct: Eurofins Cerep

[2] = tested on: phytohemagglutinin P-induced IL-2 release; assay: Phytohemagglutinin P-induced IL-2 release in human PBMCs; type: cell-based; settings: 10 µg/mL PHA-P for 20 h
Protocol: Blood was donated by internal donors at the Center for Occupational Health at Boehringer Ingelheim in Biberach an der Riss, Germany; the donors provided signed informed consent that allows use for scientific purposes. All research was performed in accordance with the principles stated in the Declaration of Helsinki. Ethical approval was provided by the Federal State Medical Association of Baden-Württemberg, reference no. F-2016–121. For preparation of peripheral blood mononuclear cells (PBMCs), 200 mL freshly drawn human blood from healthy donors was mixed with 50 mL acid-citrate-dextrose solution (38 mmol/L citric acid, 75 mmol/L tri-sodium citrate and 121 mmol/L glucose) and 50 mL Hanks buffered saline solution (Thermo Fisher Scientific, Carlsbad, CA, United States), overlaid on Ficoll and centrifuged for 30 min at 300 x g. PBMCs were diluted in RPMI-1640 medium (Thermo Fisher Scientific) containing 6% (v/v) autologous plasma to a concentration of 5 × 10^6 cells/mL. […] Supernatants were taken and cytokines measured by enzyme-linked immunosorbent assay (ELISA; Becton Dickinson, Franklin Lakes, NJ, United States).

[3] = tested on: LPS-stimulated IL-6 release; assay: LPS-stimulated IL-6 release in human whole blood; type: cell-based; settings: high concentrations
Protocol: Heparinized whole blood was collected from the Aorta abdominalis of WI (Han) male rats (Charles River Laboratories, Sulzfeld, Germany) and from healthy male human donors, and treated with 1 µL (rat) or 2.5 µL (human) of BI 1015550 or vehicle [final DMSO concentration 0.5% (v/v)]. Final assay volumes were 200 μL (rat) and 500 μL (human). After incubation for 30 min at 37°C, 95% humidity, and 5% CO2, cultures were treated with LPS [final concentration 10 µg/mL (rat), 0.1 µg/mL (human)] or saline. After 7 h, plates were centrifuged at 3.200 × g at 4°C for 10 min and plasma was used for cytokine measurement. Meso Scale Discovery (MSD) (Rockville, MD, United States) rat and human pro-inflammatory panels were used for detection of TNF-α and IL-6 in rat plasma [diluted 1:2 (v/v)]) and human plasma [negative control undiluted, other samples diluted 1:200 (v/v)] according to the manufacturer’s instructions.

[4] = tested on: Col1A1 mRNA expression; assay: TGF-β-induced Col1A1 mRNA expression in IPF lung fibroblasts (Taqman); type: cell-based, human; settings: IPF-LF, TGF-β 4 ng/mL, 48 h; read-out: IC50 TGF-β-induced Col1 mRNA expression
Protocol: Fibroblasts from donors with IPF (IPF-LF) (Asterand, Detroit, MI, United States) were grown in fibroblast basal medium (CC-3131, Lonza Walkersville, Inc., Walkersville, MD, United States) supplemented with FGM-2 SingleQuot Kit Supplements and Growth Factors (CC-4126, Lonza). Cells were grown in a humidified incubator at 37°C and 5% CO2. All assays were performed at passage 7 or 8. For assay set-up, cells were seeded in fibroblast growth medium plus supplements in assay-relevant densities. For TGF-β-stimulated assays, cells were seeded at 4,500 cells per well in 96-well plates. Proliferation assays were performed in 96-well plates at an initial seeding cell density on day 0 of 2,000 cells per well. After 24-h, the cell culture medium was changed to starvation medium (fibroblast basal medium without supplements). […]
For determination of Col1A1, Col3A1, and FN mRNA expression, IPF-LF cells were stimulated with TGF-β (4 ng/mL) for 48 h. […] Quantitative real-time polymerase chain reactions were set up using the TaqMan™ Fast Advanced Master Mix (Applied Biosystems, Carlsbad, CA, United States) and species-specific gene expression assays: Col1A1 #Hs00164004_m1 FAM, Col3A1 #Hs0094309_m1 FAM, FN #Hs01549976_m1 FAM, 18S #4310893E. […] Fold-change of gene expression was calculated by the Viia7 software (regulation based upon housekeeper).

T1 sequence (O00408 whole entry): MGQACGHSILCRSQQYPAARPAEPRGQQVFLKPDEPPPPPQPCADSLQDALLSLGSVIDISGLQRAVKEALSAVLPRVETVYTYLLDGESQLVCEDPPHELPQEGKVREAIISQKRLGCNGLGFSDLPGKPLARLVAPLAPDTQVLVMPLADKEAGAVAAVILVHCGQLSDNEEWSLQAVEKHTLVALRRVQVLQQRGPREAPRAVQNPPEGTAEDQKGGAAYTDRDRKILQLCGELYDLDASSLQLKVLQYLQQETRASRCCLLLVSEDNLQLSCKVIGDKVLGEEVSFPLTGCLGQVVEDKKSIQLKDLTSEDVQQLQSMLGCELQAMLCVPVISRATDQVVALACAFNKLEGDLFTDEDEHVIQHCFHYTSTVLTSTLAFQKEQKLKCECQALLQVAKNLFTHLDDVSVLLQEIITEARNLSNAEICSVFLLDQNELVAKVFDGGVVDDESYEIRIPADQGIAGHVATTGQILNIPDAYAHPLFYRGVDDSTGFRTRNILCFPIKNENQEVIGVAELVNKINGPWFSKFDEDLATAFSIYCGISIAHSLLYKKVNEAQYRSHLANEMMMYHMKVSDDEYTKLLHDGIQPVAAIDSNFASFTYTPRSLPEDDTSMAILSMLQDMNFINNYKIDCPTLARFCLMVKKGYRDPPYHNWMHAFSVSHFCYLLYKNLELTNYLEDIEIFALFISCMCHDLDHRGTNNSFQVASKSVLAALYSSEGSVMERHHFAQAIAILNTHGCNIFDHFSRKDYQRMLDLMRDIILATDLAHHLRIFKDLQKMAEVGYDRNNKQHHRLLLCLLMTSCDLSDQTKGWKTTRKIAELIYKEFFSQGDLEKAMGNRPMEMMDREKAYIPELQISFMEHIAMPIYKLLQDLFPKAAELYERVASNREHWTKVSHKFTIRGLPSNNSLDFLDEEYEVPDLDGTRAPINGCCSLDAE

- Inhibition of human PDE2A [1]: did not inhibit
- IC50 [2]: 0.009 µM
Compound: [O-][S+]1CCc2nc(N3CCC(c4ncc(Cl)cn4)CC3)nc(NC3(CO)CCC3)c21 (centres unmarked) [BI 1015550]
- IL-6 increase [3]: did not result in an IL-6 increase
- Maximum inhibition of IL-6 release [3]: 30–40%
- IC50 [4]: 0.269 µM
